Test results reported in ChEMBL document CHEMBL1629698, “Identification of the novel dfrK-carrying transposon Tn559 in a porcine methicillin-susceptible Staphylococcus aureus ST398 strain” (2010).
≈ marks a conversion by molar mass, not a printed value.

System: Staphylococcus aureus
Test: Antimicrobial activity against Staphylococcus aureus 2171 by broth microdilution method
Assay type: functional

SMILES	MIC [µg/mL]
CC1(C)S[C@@H]2[C@H](NC(=O)[C@H](N)c3ccccc3)C(=O)N2[C@H]1C(=O)O [AMPICILLIN]	4 (≈ 11.4 µM)
CCC[C@@H]1C[C@@H](C(=O)N[C@@H]([C@H]2O[C@H](SC)[C@H](O)[C@@H](O)[C@H]2O)[C@H](C)Cl)N(C)C1 [CLINDAMYCIN]	≥ 128
CCN1CCN(c2cc3c(cc2F)c(=O)c(C(=O)O)cn3C2CC2)CC1 [ENROFLOXACIN]	8 (≈ 22.3 µM)
CC[C@H]1OC(=O)[C@H](C)[C@@H](O[C@H]2C[C@@](C)(OC)[C@@H](O)[C@H](C)O2)[C@H](C)[C@@H](O[C@@H]2O[C@H](C)C[C@H](N(C)C)[C@H]2O)[C@](C)(O)C[C@@H](C)C(=O)[C@H](C)[C@@H](O)[C@]1(C)O [ERYTHROMYCIN]	≥ 64
Cc1onc(-c2ccccc2)c1C(=O)N[C@@H]1C(=O)N2[C@@H]1SC(C)(C)[C@@H]2C(=O)O [OXACILLIN]	0.5 (≈ 1.25 µM)
CC1(C)S[C@@H]2[C@H](NC(=O)Cc3ccccc3)C(=O)N2[C@H]1C(=O)O [PENICILLIN G]	8 (≈ 23.9 µM)
CN(C)[C@@H]1C(O)=C(C(N)=O)C(=O)[C@@]2(O)C(O)=C3C(=O)c4c(O)cccc4[C@@](C)(O)[C@H]3C[C@@H]12 [TETRACYCLINE]	32 (≈ 72 µM)
COc1cc(Cc2cnc(N)nc2N)cc(OC)c1OC [TRIMETHOPRIM]	≥ 128
